Key:
[1] = tested on: TgSABP1-6′SL-PAA interaction; assay: Competitive BLI assay of TgSABP1-6′SL-PAA interaction; format: binding, Toxoplasma gondii; conditions: 5 μM TgSABP1; for Inhibition of binding of recombinant TgSABP1 to 6′SL-PAA: SA 5, 10, 20 mM, lactose 25, 50, 100 mM, oseltamivir phosphate 30, 60 mM
Experimental: To evaluate small molecule-mediated inhibition of TgSABP1-6′SL-PAA interaction, streptavidin biosensors pre-loaded with 2.4 μM 6′SL-PAA until saturation (threshold ≥ 1.5 nm shift) were subjected to competitive binding assays on an Octet K2 system. Four test compounds were diluted to different concentrations in PBST-BSA, including SA (5, 10, and 20 mM), lactose (25, 50, and 100 mM), oseltamivir phosphate (30 and 60 mM), and eltrombopag (5 and 50 μM). The His-tagged TgSABP1 protein was diluted to 5 μM with different concentrations of compounds and incubated for 15 min at room temperature. The competition binding test included equilibration for 90 s in the compound solution, association for 60–180 s in the pre-treated protein solution, dissociation for 60–90 s in the compound solution, and regeneration [3 × 20 s pulses in HCl (pH 1.0) followed by PBS neutralization]. Data parameters were analyzed by ForteBio Data Analysis software (v 9.0.0.14) using the average reference sensors’ subtraction method and 1:1 binding model. All experiments were repeated in triplicate.

[2] = tested on: T. gondii RH-RFP tachyzoites; assay: T. gondii host cell invasion assay in Vero cells; format: cell-based; conditions: Toxoplasma gondii
Experimental: (§1) The anti-invasive activity of eltrombopag against T. gondii was assessed using a fluorescence-based invasion assay with modifications to the established protocols. Toxoplasma gondii RH strains stably expressing red fluorescence protein were added to 2 × 10^5 Vero cells (multiplicity of infection [MOI] of 1:1) pre-treated with the drug or the equivalent volume of DMSO for 1 h. One hour after the parasites were added, the parasites were removed and the cells were gently washed with PBS three times, then incubated with DMEM containing 2% FBS. After 16 h of cultivation, the cells were fixed with 4% PFA and stained with DAPI (Beyotime, Shanghai, China). The numbers of parasitophorous vacuoles (PVs) and host cells were counted in a total of 20 randomly selected fields under a fluorescence microscope (Leica DM4B, Wetzlar, Germany). Invasion efficiency = (number of PVs/number of DAPI^+ cells) × 100%. Meanwhile, the number of parasites in each vacuole was determined. Seventy vacuoles from each coverslip were counted across at least three biological replicates. Intra-vacuolar proliferation was expressed as the mean number of parasites per PV.

[3] = tested on: T. gondii RH-RFP tachyzoites; assay: Intra-vacuolar proliferation (parasites per vacuole); format: cell-based, Toxoplasma gondii
Experimental: as §1

T. gondii = assay: Anti-parasite activity in vivo

## OC[C@H]1O[C@@H](O[C@H]2[C@H](O)[C@@H](O)C(O)O[C@@H]2CO)[C@H](O)[C@@H](O)[C@H]1O (mixture of isomers) [lactose]
[1]
  Inhibition of binding of recombinant TgSABP1 to 6′SL-PAA: did not

## CC(=O)N[C@H]1[C@H]([C@H](O)[C@H](O)CO)OC(O)(C(=O)O)C[C@@H]1O (some centres unmarked) [SA, sialic acid]
[1]
  Inhibition of binding of recombinant TgSABP1 to 6′SL-PAA: exhibited the inhibition on the binding of recombinant TgSABP1 to 6′SL-PAA in a concentration-dependent manner

## CC1=NN(c2ccc(C)c(C)c2)C(=O)/C1=N\Nc1cccc(-c2cccc(C(=O)O)c2)c1O [eltrombopag]
[1]; 50 μM compound
  Blocking of binding of recombinant TgSABP1 to 6′SL-PAA: significantly blocked
[2]; 10 μM, vs DMSO control, read-out: Inhibition rate of host cell invasion
  inhibition at 10 µM: 47.8%
[2]; 20 μM, vs DMSO control, read-out: Inhibition rate of host cell invasion
  inhibition at 20 µM: 57.7%
[2]; calculated, read-out: IC50 for anti-invasion of T. gondii
  IC50: 11.6 µM
[3]; 10 μM
  Intracellular parasite replication: without affecting intracellular parasite replication
[3]; 20 μM, vs DMSO control
  Replication of invaded parasites: significantly impaired
T. gondii
  Anti-parasite activity in vivo: did not show any anti-parasite activity in vivo

## CCOC(=O)C1=C[C@@H](OC(CC)CC)[C@H](NC(C)=O)[C@@H](N)C1 [oseltamivir phosphate]
[1]
  Inhibition of binding of recombinant TgSABP1 to 6′SL-PAA: dose-dependent inhibition
[1]; 60 mM compound
  Blocking of binding of recombinant TgSABP1 to 6′SL-PAA: significantly blocked

Source: article PMC12210739, “A sialic acid-binding protein in Toxoplasma gondii contains a conserved globular domain in apicomplexan parasites” (Parasites & Vectors, 2025)
